In paper PMC12713470, “Design and Synthesis of Novel Chalcone Derivatives Targeting Bladder and Liver Cancer: Cytotoxicity Evaluation and Preliminary Mechanistic Studies” (ACS Omega, 2025):

Legend:
[1] = test system: TOV-21G: human ovarian adenocarcinoma cells; assay: MTT cytotoxicity assay on TOV-21G cells; type: cell-based
Procedure: (§1) Cytotoxicity was determined using the MTT colorimetric assay, and half-maximal inhibitory concentrations (IC50, μM) were obtained for all cell lines (Table ). The selectivity index (SI) was calculated as the ratio of IC50 MRC-5/IC50 cancer cell line. Doxorubicin was employed as a positive control due to its broad-spectrum clinical use, either alone or in combination, against hepatocellular, ovarian, cervical, and bladder cancers. −
(§2) In vitro biological assays were performed by using five human cell lines for cytotoxicity evaluation. HepG2 cells (ATCC HB-8065), derived from a human hepatocellular carcinoma of the liver (person), were cultured in Dulbecco’s modified Eagle medium (DMEM) supplemented with 5% fetal bovine serum (FBS), penicillin/streptomycin (100 IU/mL), and amphotericin B (5 μg/mL), in a humidified incubator with 5% CO2 at 37 °C. These cells were plated at a concentration of 2.0 × 10^4 cells/well in 96-well microplates. MRC-5 cells (ATCC CCL-171), derived from human lung fibroblasts of a […] fetus, were cultured under the same conditions and plated at 1.0 × 10^4 cells/well. T24 cells (ATCC HTB-4), established from a transitional cell carcinoma of the bladder (person), were also cultured under identical conditions and plated at a density of 1.0 × 10^4 cells/well. TOV-21G cells (ATCC CRL-11730), derived from a primary malignant ovarian adenocarcinoma (person), were maintained in DMEM with the same supplementation and environmental conditions and plated at 5.0 × 10^4 cells/well. […]
(§3) HeLa, HepG2, MRC-5, T24, and TOV-21G cells were suspended in a culture medium supplemented with 5% fetal bovine serum (FBS) and seeded into 96-well microplates. The plates were incubated under a humidified atmosphere containing 5% CO2 at 37 °C for 24 h, allowing for adherence and monolayer formation. , Eight serial dilutions of the test samples, previously solubilized in dimethyl sulfoxide (DMSO), were prepared in DMEM supplemented with 1% FBS, covering a concentration range from […], and the results were converted to […]. The volume of DMSO in each well was limited to a final concentration not exceeding 2%. Following monolayer formation, the culture medium was aspirated and replaced with 100 μL of the diluted test samples and 100 μL of DMEM containing 1% FBS. The plates were then incubated under the same atmospheric and temperature conditions.
(§4) Two hours prior to end point reading, 20 μL of MTT [3-(4,5-dimethylthiazol-2-yl)-2,5-diphenyltetrazolium bromide] solution (1.0 mg/mL in sterile phosphate-buffered saline, Sigma-Aldrich) was added to each well. The incubation period following sample addition varied according to the cell line: 24 h for MRC-5, 48 h for T24, and 72 h for HeLa, HepG2, and TOV-21G. After the appropriate incubation, absorbance was measured by using a VICTOR X3 microplate reader (PerkinElmer), and data were processed with WorkOut 2.5 software at a wavelength of 490 nm. Formazan formation, resulting from the MTT reduction by metabolically active cells, was used as an indirect measure of cell viability. The percentage of cytotoxicity was calculated using the equation % cytotoxicity = [(A – B)/A] × 100, where A is the optical density (OD4 9 0) of untreated control cells and B is the OD4 9 0 of treated cells.
(§5) Cytotoxicity was expressed as the 50% cytotoxic concentration (CC5 0), representing the concentration of sample required to reduce cell viability by 50% relative to that of the untreated control.

[2] = test system: HeLa: human cervical adenocarcinoma cells; assay: MTT cytotoxicity assay on HeLa cells; type: cell-based
Procedure: as §1, §2, §3, §4, §5

[3] = test system: HeLa, HepG2, T24, and TOV-21G; assay: MTT cytotoxicity, all evaluated cancer cells (summary); type: cell-based; details: Homo sapiens, read-out: IC50 values against all evaluated cancer cells
Procedure: as §1
In vitro biological assays were performed by using five human cell lines for cytotoxicity evaluation. […]
as §4, with “The incubation period following sample addition varied according to the cell line: 24 h for MRC-5, 48 h for T24, and 72 h for HeLa, HepG2, and TOV-21G.” left out, “Formazan formation, resulting from the MTT reduction by metabolically active cells, was used as an indirect measure of cell viability.” left out
as §5

T24 cells = assay: Apoptosis/necrosis analysis (annexin V/PI), T24; type: cell-based, human; details: 18.50 μM, 48 h
Procedure: (§6) Cells in the exponential growth phase were seeded in 12-well plates at a density of 1 × 10^5 cells per well in 3 mL of complete culture medium. Along with the experimental groups, four control groups were included: one without labeling, one labeled only with propidium iodide (PI), one labeled only with Annexin V, and one labeled with both PI and Annexin V. After 24 h, the cells were treated with the compound at concentrations of 2.15, 4.62, 9.25, and 18.50 μM for 48 h. Following the treatment period, the supernatant from each well was transferred to cytometry tubes and centrifuged at 1100 rpm for 10 min. The remaining adhered cells were washed with 1 mL of Hanks’ solution, and 500 μL of trypsin was added to detach the cells. The trypsin action was neutralized by adding 500 μL of complete medium, and the contents (detached cells plus precentrifuged supernatant) were collected into cytometry tubes, which were then centrifuged again at 1100 rpm for 10 min. After centrifugation, the supernatant was discarded. For labeling, Annexin V binding buffer was prepared by diluting 1 mL of component C in 5 mL of distilled water. Next, a 100 μg/mL propidium iodide working solution was prepared by diluting 5 μL of the 1 mg/mL stock (component B) in 45 μL of 1× buffer. […]

[4] = test system: HepG2: human liver hepatocellular carcinoma cells; assay: MTT cytotoxicity assay on HepG2 cells; type: cell-based
Procedure: as §1, §2, §3, §4, §5

HepG2 cells [5] = assay: Apoptosis/necrosis analysis (annexin V/PI), HepG2; type: cell-based, human; details: 2.15, 4.62, or 9.25 μM, 48 h
Procedure: as §6

HepG2 cells [6] = assay: Morphology assay, HepG2; type: cell-based, human; details: 2.15-18.50 μM, 48 h
Procedure: For the morphology assay, 2.0 × 10^5 cells were cultured in 12-well plates for 24 h to allow adherence. After this period, the cells were treated with the chalcone at concentrations of 2.15, 4.62, 9.25, and 18.50 μM for 48 h. After treatment, the cells were examined and photographed under an inverted microscope at 200× magnification.

[7] = test system: MRC-5: human lung fibroblast cells; assay: MTT cytotoxicity assay on MRC-5 cells; type: cell-based; details: MRC5, 24 h incubation, n = 3, ± standard deviation
Procedure: as §1, §2, §3, §4, §5

In the case of `CCCc1cc(/C=C/C(=O)c2ccc(C)cc2)c(OC)c(OC)c1` [compound 3, (E)-3-(2,3-Dimethoxy-5-propylphenyl)-1-(p-tolyl)-prop-2-en-1-one], the IC50 ([1]; Homo sapiens, TOV21G, MTT, 72 h incubation, n = 3, NA: noncytotoxic at the concentrations tested) is reported as 3 ± 2.6 µM, the “SI (TOV-21G)” value ([1]; IC50 MRC-5/IC50 TOV-21G) is reported as 18.2 and the IC50 ([2]; Homo sapiens, HeLa, MTT, 72 h incubation, n = 3, NA: noncytotoxic at the concentrations tested) is reported as 5.9 ± 1.6 µM. The “SI (HeLa)” value ([2]; IC50 MRC-5/IC50 HeLa) was 9.3, the IC50 [3] was 3.03 to 5.92 µM and the “cell viability (annexin V/PI), T24” value (T24 cells) was “reduced cell viability”. For the same compound, the “proportion of cells undergoing early apoptosis, T24” value (T24 cells) was “increased the proportion of cells undergoing early apoptosis”, the IC50 ([4]; Homo sapiens, HepG2, MTT, 72 h incubation, n = 3, NA: noncytotoxic at the concentrations tested) was 4.5 ± 1.2 µM and the “SI (HepG2)” value ([4]; IC50 MRC-5/IC50 HepG2) was 12.2. For the same compound, the “percentage of apoptotic or necrotic cells, HepG2” value (HepG2 cells [5]) was “did not result in a significant increase”, the “morphology, HepG2” value (HepG2 cells [6]) was “reduction in cell density was observed” and the IC50 [7] was 55.5 ± 1.2 µM.
